{
  "source": "patent US20220370636A1",
  "about": "“NICOTINAMIDE ADENINE DINUCLEOTIDE ACTIVATOR AND USE THEREOF” (University of South Florida, priority 2021, published 2022)",
  "key": {"C57Bl/6J wildtype hearts": {"system": "C57Bl/6J wildtype hearts", "test": "Ex vivo ischemia reperfusion (Langendorff) in wildtype hearts", "set-up": "species or system mice", "procedure": "Ex vivo ischemia reperfusion protocol. Mice were injected with heparin (360 USP units, Sigma-Aldrich, MO, USA) and euthanized with Somnasol™ (pentobarbital, 50 mg/kg i.p. body weight). Hearts were then excised and mounted on to the Langendorff apparatus immediately and perfused with Krebs-Hanseleit buffer containing (in mM): 119 NaCl, 25 NaHCO3, 4 KCl, 1 MgCl2, 1.8 CaCl2), 1 MgCl2, 10 glucose and 2 Sodium pyruvate, pH 7.4, that was constantly bubbled with carbogen gas and maintained at 37° C. as described previously. Perfusion was maintained at a constant flow of ˜2.2 ml/min. Hearts were stabilized for 30 min before proceeding to the ischemic phase. Hearts that underwent P7C3 (3 μM) treatment during the Langendorff procedure were allowed to stabilize for 10 mins then a 20 min perfusion with P7C3 (3 μM) (within Krebs-Hanseleit buffer) as pre-ischemic dosing. Cardiac ischemia was induced by the pause in Krebs-Hanseleit buffer perfusion for 45 min. Reperfusion was induced with the induction of Krebs-Hanseleit buffer at a constant flow of ˜2.2 ml/min for 2 hours. Hearts that underwent P7C3 (3 μM) treatment received 2-hour reperfusion with P7C3 within the Krebs-Hanseleit buffer. Hearts were then removed from the Langendorff apparatus and immediately placed in −20° C. freezer for 30 minutes. Hearts were then placed on a sectioning block and sliced into ([…]) slices. Heart sections were subjected to 2,3,5-Triphenyltetrazolium chloride (TTC) staining for 30 minutes. Hearts were then imaged and scanned for ischemic damage assessment. Image J software was utilized to quantify the ischemic areas for several sections per heart, which were then averaged and divided by the total area of the heart section and multiplied by a factor of ×100(%) to determine the overall damage percentage per heart.\nLactate Dehydrogenase activity. […]. The absorbance intensity was measured at 450 nm.\nTroponin I activity. […].\nWestern blotting. For studies aimed to assess the insulin stimulated AKT phosphorylation, following four-week P7C3 treatment, mice were injected with Novolin R human insulin (1 Unit/kg body weight, i.p.), and hearts were collected after 5 minutes for Western blot analysis. Protein lysates for Western blotting were prepared from mouse hearts as described previously. Equivalent amounts of protein were loaded and resolved using 12% precast polyacrylamide gels (BioRad, CA, USA). Successful transfer of proteins was detected using Ponceau S (Sigma-Aldrich, MO, USA), and blots were probed with mouse monoclonal primary antibody for phospho AKT^ser473 (p-AKT), total AKT (t-AKT), phospho eNOS^ser1177 (p-eNOS), total eNOS (t-eNOS), Beclin1, and GAPDH (Cell signaling, MA, USA). HRP conjugated Rabbit anti-mouse antibody (Millipore) was used as a secondary antibody. Target protein band densities were quantified using Image J software."}, "db/db mice [1]": {"system": "db/db mice", "test": "Fasting blood glucose and GTT in db/db mice (Example 5)", "type": "in vivo", "text": "Fasting blood glucose. Mice were fasted overnight, and the tail vein blood was used for measuring the blood glucose levels of the diabetic mice treated with either Vehicle (db/db Veh) or P7C3 (db/db P7C3) for 4 weeks.\nGlucose tolerance test. […] Blood samples were obtained by the submandibular puncture technique."}, "C2C12 cells": {"system": "C2C12 cells", "test": "LPS induced LDH release in C2C12 skeletal myotubes", "type": "cell-based, mouse", "conditions": "P7C3 1 μM 24 hours"}, "db/db mice hearts": {"system": "db/db mice hearts", "test": "Pyridine nucleotide measurements in db/db hearts", "type": "in vivo", "conditions": "vs vehicle control", "procedure": "Pyridine nucleotide measurements. NADH/NAD^+ ratios were determined in frozen db/db heart tissues (from the vehicle and P7C3 treated mice) using commercially available EnzyChrome kit (Bioassays, Hayward, Calif., USA) as reported before. Following manufacturer's instructions, cardiac tissue was homogenized in 100 μl of NAD^+ or NADH extraction buffer for NAD^+ and NADH determination, respectively. Samples were heated at 60° C. for 5 minutes on a heat block and neutralized by adding 100 μl of the opposite extraction buffer. Samples were then mixed by brief vortexing and centrifuged at 14,000 rpm for 5 minutes. 40 μl of supernatant from each sample was dispensed in duplicates in a 96-well plate, and 80 μl of working reagent constituted with supplier provided assay buffer, lactate dehydrogenase, lactate and MTT reagent was added to each well. Samples were gently mixed and optical density at 565 nm was acquired immediately (0 min) and after 15 minutes, at room temperature using a microplate reader. A standard curve was utilized for calculating NADH/NAD^+ levels in each sample."}, "db/db mice [2]": {"system": "db/db mice", "test": "qPCR gene expression of gastrocnemius muscle and MyHC1 myofibre staining in db/db mice", "type": "in vivo", "procedure": "Quantitative real-time PCR. Total RNA was isolated from GAS muscle using the Exiqon miRCURY RNA Isolation kit (Exiqon, Mass., USA) according to the manufacturer's protocol. Complimentary DNA from total RNA was synthesized with iScript cDNA synthesis kit (Bio-Rad Laboratories, CA, USA) and quantitative real-time PCR (qPCR) analysis was performed on key transcriptome targets using iTaq Universal SYBR Green Supermix (Bio-Rad Laboratories, CA, USA). The cDNA synthesis and qPCR procedures were performed as described previously. The mouse HPRT gene was used as an internal control.\nMyofibre staining. The 10 μm thick transverse serial cryosections of TA muscles were cut at the mid-belly region using Microm cryostat ma-chine. Briefly, the tissue sections were blocked with 0.2% bovine serum albumin (BSA) and 10% normal sheep serum (NSS) in PBS-Triton X100 (PBST) for 1 h at RT. All washes were carried out with PBS. Following washing, the sections were incubated in 5 μg/mL of mouse monoclonal primary antibody against myosin heavy chain type-1 (A4.840s DSHB, IA, USA) in 0.2% BSA and 5% NSS antibody dilution buffer in PBST overnight at 4° C. After washing, the sections were then fixed with 10% neutral buffered formalin for 5 min at RT, washed and incubated in 1:300 dilution of biotinylated sheep anti-mouse IgG (ab6807, Abcam, Mass., USA) and 1:1000 dilution of rabbit anti-laminin (L9393, Sigma-Aldrich, MO, USA) in the antibody dilution buffer for 1 h at RT. Following washes, the tissue sections were then incubated in 1:400 dilution of streptavidin AF488 conjugate and goat anti-rabbit AF594 (Invitrogen, CA, USA) and then washed and mounted with Prolong gold anti-fade mounting medium with DAPI (Invitrogen, CA, USA). Images were obtained at ×10 and ×20 magnifications with the Olympus IX73 inverted microscope using CellSens Standard software (Olympus Soft Imaging Solution, USA) and the MyHC1 positive myofibres were quantified with ImageJ software."}, "[3]": {"conditions": "WT hearts perfused with P7C3 3 μM"}, "[4]": {"conditions": "WT hearts, following I/R injury, vs control hearts"}, "[5]": {"conditions": "gastrocnemius muscle, vs db-Veh"}, "[6]": {"conditions": "gastrocnemius muscle, vs db-Veh and C57Bl/6J"}, "[7]": {"conditions": "gastrocnemius muscle, vs db-Veh and WT"}},
  "data": [
    {"smiles": "OC(CNc1ccccc1)Cn1c2ccc(Br)cc2c2cc(Br)ccc21", "note": "(stereo not shown) [P7C3, 3,6-Dibromo-a-[(phenylamino)methyl]-9H-carbazole-9-ethanol]", "values": [
      {"measurement": "increase in NAD+/NADH levels", "setting": "C57Bl/6J wildtype hearts; [3]", "result": 3, "unit": "fold"},
      {"measurement": "increase in cardiac Nampt activity", "setting": "C57Bl/6J wildtype hearts; [3]", "result": 1.7, "unit": "fold"},
      {"measurement": "ischemic injury (infarct)", "setting": "C57Bl/6J wildtype hearts; WT hearts, P7C3 3 μM pre- and post-exposure", "result": 8, "unit": "%"},
      {"measurement": "p-AKT/t-AKT levels post I/R injury", "setting": "C57Bl/6J wildtype hearts; WT hearts, P7C3 3 μM, vs vehicle control hearts", "result": "significant increase"},
      {"measurement": "coronary effluent LDH activity", "setting": "C57Bl/6J wildtype hearts; [4]", "result": "significantly reduced"},
      {"measurement": "coronary effluent Troponin I", "setting": "C57Bl/6J wildtype hearts; [4]", "result": "significantly reduced"},
      {"measurement": "GTT decrease in circulating blood glucose from 30 minutes onwards", "setting": "db/db mice [1]; db/db, 4 weeks, between treatment groups", "result": "non-significant"},
      {"measurement": "GTT area under curve", "setting": "db/db mice [1]; db/db, trapezium method, p=0.0021", "result": "significant difference"},
      {"measurement": "fasting blood glucose levels", "setting": "db/db mice [1]; overnight fasted db/db, 10 mg/kg/day i.p., 4 weeks, vs vehicle", "result": "significant decrease"},
      {"measurement": "LPS induced LDH release (inflammation in vitro)", "setting": "C2C12 cells", "result": "attenuated"},
      {"measurement": "increase in cardiac NAD+/NADH ratio", "setting": "db/db mice hearts", "result": 2.5, "unit": "fold"},
      {"measurement": "TNFα expression in skeletal muscle", "setting": "db/db mice [2]; gastrocnemius muscle, db-Veh vs db-P7C3", "result": "high levels in db-Veh compared with db-P7C3"},
      {"measurement": "CD36 expression", "setting": "db/db mice [2]; [5]", "result": "significantly down-regulated"},
      {"measurement": "Fabp1 expression", "setting": "db/db mice [2]; [5]", "result": "significantly down-regulated"},
      {"measurement": "Fgf21 expression", "setting": "db/db mice [2]; [5]", "result": "significant reduction"},
      {"measurement": "MyHC type 1 (MyHC1) expression levels", "setting": "db/db mice [2]; [5]", "result": "significant de-crease"},
      {"measurement": "Cpt1 expression", "setting": "db/db mice [2]; [6]", "result": "significantly up-regulated"},
      {"measurement": "Pdk4 expression", "setting": "db/db mice [2]; [6]", "result": "significantly up-regulated"},
      {"measurement": "MyHC-2a expression levels", "setting": "db/db mice [2]; [7]", "result": "no significant change"},
      {"measurement": "MyHC-2b expression levels", "setting": "db/db mice [2]; [7]", "result": "no significant change"},
      {"measurement": "MyHC-2× expression levels", "setting": "db/db mice [2]; [7]", "result": "no significant change"},
      {"measurement": "number of MyHC1 positive myofibres", "setting": "db/db mice [2]; tibialis anterior immunostaining, vs db-Veh", "result": "significant decrease"}
    ]}
  ]
}
